Reference: ChEMBL document CHEMBL1125947, “Triply-convergent syntheses of two homochiral arene-fused prostacyclin analogs related to U68,215” (Bioorg Med Chem Lett, 1991)

Species: Homo sapiens
Experiment: Compound was tested for inhibitory activity against collagen induced platelet aggregation
Format: functional

IC50 | SMILES
2.9 nM | O=C(O)COc1cccc2c1C[C@H]1C[C@@H](O)[C@H](C#C[C@@H](O)C3CCCCC3)[C@H]1C2
52 nM | O=C(O)COc1cccc2c1C[C@H]1C[C@@H](O)[C@H](C#C[C@@H](O)C3CCCCC3)[C@@H]1C2
